Measurements reported in patent publication US9266892B2, “Fused pyrazoles as FGFR inhibitors” (Incyte Corporation, priority 2012, dated 2016).

Legend:
Format in all cases: biochemical
[1] = target: T1, FGFR1 (Homo sapiens, UniProt P11362); assay: FGFR Enzymatic Assay (FRET peptide phosphorylation), FGFR1; details: FGFR1 0.02 nM, ATP 210 μM
T1 construct: purchased Millipore or Invitrogen
Outline: (§1)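 Human FGFR1 (0.02 nM) and FGFR2 (0.01 nM) were pre-incubated with compound for 5-10 min in HEPES buffer pH 7.5, then reacted at 25 °C for 1 hr with 500 nM biotinylated peptide and ATP (FGFR1 210 μM; FGFR2 100 μM). Phosphopeptide was detected by Eu-PY20/APC-streptavidin TR-FRET after EDTA quench. IC50 came from variable-slope sigmoidal fits.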

[2] = target: T2, FGFR2 (Homo sapiens, UniProt P21802); assay: FGFR Enzymatic Assay (FRET peptide phosphorylation), FGFR2; details: FGFR2 0.01 nM, ATP 100 μM
T2 construct: purchased Millipore or Invitrogen
T2 sequence (P21802 22-821): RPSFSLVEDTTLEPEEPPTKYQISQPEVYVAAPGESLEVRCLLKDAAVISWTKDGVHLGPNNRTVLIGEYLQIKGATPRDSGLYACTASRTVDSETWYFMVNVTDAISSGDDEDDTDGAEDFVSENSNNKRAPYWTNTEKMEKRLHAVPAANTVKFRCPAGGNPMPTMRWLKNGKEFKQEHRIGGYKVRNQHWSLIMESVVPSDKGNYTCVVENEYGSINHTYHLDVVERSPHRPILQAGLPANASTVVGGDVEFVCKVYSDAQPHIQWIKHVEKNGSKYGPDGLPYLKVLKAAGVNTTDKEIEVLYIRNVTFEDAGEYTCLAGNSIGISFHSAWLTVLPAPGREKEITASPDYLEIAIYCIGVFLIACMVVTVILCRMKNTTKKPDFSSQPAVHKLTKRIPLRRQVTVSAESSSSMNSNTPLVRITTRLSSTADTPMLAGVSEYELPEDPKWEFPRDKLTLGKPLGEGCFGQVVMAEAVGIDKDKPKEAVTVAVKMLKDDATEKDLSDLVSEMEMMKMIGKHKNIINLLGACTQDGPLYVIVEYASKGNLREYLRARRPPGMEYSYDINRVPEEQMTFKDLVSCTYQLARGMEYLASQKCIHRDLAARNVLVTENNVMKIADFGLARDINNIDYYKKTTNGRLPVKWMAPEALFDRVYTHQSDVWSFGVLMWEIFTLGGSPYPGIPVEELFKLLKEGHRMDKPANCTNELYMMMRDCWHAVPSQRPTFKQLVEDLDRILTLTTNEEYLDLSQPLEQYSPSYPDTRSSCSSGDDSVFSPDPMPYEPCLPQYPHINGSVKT
Outline: as §1

[3] = target: T3, FGFR3 (Homo sapiens, UniProt P22607); assay: FGFR Enzymatic Assay (FRET peptide phosphorylation), FGFR3; details: ATP 140 μM, 25° C. for 1 hr
T3 construct: purchased Millipore
T3 sequence (P22607 23-806): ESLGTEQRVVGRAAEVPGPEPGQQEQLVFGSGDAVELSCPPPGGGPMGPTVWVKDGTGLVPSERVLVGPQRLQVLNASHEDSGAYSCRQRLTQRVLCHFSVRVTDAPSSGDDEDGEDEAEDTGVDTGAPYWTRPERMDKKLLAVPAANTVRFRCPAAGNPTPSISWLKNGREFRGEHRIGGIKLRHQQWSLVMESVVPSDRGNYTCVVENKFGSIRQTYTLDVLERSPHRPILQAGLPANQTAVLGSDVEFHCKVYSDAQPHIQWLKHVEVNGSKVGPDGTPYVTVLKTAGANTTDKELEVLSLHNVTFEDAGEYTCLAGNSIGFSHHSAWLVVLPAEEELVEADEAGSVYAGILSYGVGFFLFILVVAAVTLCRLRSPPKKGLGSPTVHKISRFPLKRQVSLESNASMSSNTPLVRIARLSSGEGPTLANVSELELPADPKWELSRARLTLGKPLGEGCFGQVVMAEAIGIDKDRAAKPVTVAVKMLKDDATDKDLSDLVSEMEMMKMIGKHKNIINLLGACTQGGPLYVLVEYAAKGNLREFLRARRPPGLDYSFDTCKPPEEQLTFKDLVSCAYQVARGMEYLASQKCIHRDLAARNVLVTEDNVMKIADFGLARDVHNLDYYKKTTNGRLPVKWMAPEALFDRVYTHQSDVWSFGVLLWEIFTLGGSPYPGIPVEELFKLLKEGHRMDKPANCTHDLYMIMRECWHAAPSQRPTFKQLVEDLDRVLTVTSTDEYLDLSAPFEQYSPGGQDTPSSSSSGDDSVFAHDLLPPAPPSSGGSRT
Outline: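 FGFR3 in 50 mM HEPES pH 7.5, 10 mM […]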

T1 sequence (P11362 22-822): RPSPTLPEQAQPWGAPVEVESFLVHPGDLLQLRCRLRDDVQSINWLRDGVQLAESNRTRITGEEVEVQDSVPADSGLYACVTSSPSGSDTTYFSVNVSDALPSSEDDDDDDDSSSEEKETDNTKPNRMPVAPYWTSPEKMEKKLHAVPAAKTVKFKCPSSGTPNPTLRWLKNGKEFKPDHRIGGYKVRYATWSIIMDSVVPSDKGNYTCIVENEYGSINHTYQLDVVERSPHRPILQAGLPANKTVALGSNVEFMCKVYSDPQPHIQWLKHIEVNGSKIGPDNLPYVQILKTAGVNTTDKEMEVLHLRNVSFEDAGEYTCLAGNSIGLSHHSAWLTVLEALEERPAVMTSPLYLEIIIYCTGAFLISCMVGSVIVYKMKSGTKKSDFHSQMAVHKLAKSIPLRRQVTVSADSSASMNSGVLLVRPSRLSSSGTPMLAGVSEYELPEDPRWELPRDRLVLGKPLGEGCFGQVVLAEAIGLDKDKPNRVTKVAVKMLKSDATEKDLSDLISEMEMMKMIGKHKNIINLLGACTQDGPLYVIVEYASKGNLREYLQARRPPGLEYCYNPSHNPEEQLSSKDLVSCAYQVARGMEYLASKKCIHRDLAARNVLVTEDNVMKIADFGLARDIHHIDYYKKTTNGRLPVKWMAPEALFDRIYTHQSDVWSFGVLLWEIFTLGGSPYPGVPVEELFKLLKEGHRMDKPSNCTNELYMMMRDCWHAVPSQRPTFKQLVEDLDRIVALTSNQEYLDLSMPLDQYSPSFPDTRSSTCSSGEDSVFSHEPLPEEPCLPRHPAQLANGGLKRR

Compound | IC50 [1] [nM] | IC50 [2] [nM] | IC50 [3] [nM]
COc1cc(OC)c(F)c(-c2cc3[nH]nc(-c4ccc(N5CCN(C)CC5)nc4)c3cn2)c1F [Example 26, 6-(2,6-Difluoro-3,5-dimethoxyphenyl)-3-[6-(4-methylpiperazin-1-yl)pyridin-3-yl]-1H-pyrazolo[4,3-c]pyridine] | < 100 | < 100 | < 100
COc1cc(OC)c(F)c(-c2cc3[nH]nc(-c4ccc5c(c4)CN(C4CC4)C5=O)c3cn2)c1F [Example 54, 2-Cyclopropyl-5-[6-(2,6-difluoro-3,5-dimethoxyphenyl)-1H-pyrazolo[4,3-c]pyridin-3-yl]isoindolin-1-one] | < 100 | < 100 | < 100
COc1cc(OC)c(Cl)c(-c2cc3[nH]nc(-c4cnn(CC(=O)N5CCC(C#N)C5)c4)c3cn2)c1Cl (stereo not drawn) [Example 47, 1-({4-[6-(2,6-Dichloro-3,5-dimethoxyphenyl)-1H-pyrazolo[4,3-c]pyridin-3-yl]-1H-pyrazol-1-yl}acetyl)pyrrolidine-3-carbonitrile] | < 100 | < 100 | < 100
COc1cc(OC)c(Cl)c(-c2cc3[nH]nc(-c4ccc5c(c4)N(C)C(=O)CO5)c3cn2)c1Cl [Example 31, 6-[6-(2,6-Dichloro-3,5-dimethoxyphenyl)-1H-pyrazolo[4,3-c]pyridin-3-yl]-4-methyl-2H-1,4-benzoxazin-3(4H)-one] | < 100 | 100 to 500 | < 100
COc1cc(OC)c(F)c(-c2ncc3c(-c4ccc5c(c4)CCN(S(C)(=O)=O)C5)n[nH]c3n2)c1F [Example 13, 6-[6-(2,6-Difluoro-3,5-dimethoxyphenyl)-1H-pyrazolo[3,4-d]pyrimidin-3-yl]-2-(methylsulfonyl)-1,2,3,4-tetrahydroisoquinoline] | < 100 | < 100 | < 100
COc1cc(OC)c(F)c(-c2cc3[nH]nc(-c4ccc5c(c4)CCNC5=O)c3cn2)c1F [Example 56, 6-[6-(2,6-Difluoro-3,5-dimethoxyphenyl)-1H-pyrazolo[4,3-c]pyridin-3-yl]-3,4-dihydroisoquinolin-1(2H)-one] | < 100 | < 100 | < 100
CNC(=O)Cn1cc(-c2n[nH]c3cc(-c4c(Cl)c(OC)cc(OC)c4Cl)ncc23)cn1 [Example 36, 2-{4-[6-(2,6-Dichloro-3,5-dimethoxyphenyl)-1H-pyrazolo[4,3-c]pyridin-3-yl]-1H-pyrazol-1-yl}-N-methylacetamide] | < 100 | < 100 | < 100
COc1cc(OC)c(F)c(-c2ncc3c(-c4ccnc(N5CCN(C)CC5)c4)n[nH]c3n2)c1F [Example 19, 6-(2,6-Difluoro-3,5-dimethoxyphenyl)-3-[2-(4-methylpiperazin-1-yl)pyridin-4-yl]-1H-pyrazolo[3,4-d]pyrimidine] | < 100 | < 100 | < 100
COc1cc(OC)c(Cl)c(-c2ncc3c(-c4ccc5c(c4)CCN(C)C5=O)n[nH]c3n2)c1Cl [Example 9, 6-[6-(2,6-Dichloro-3,5-dimethoxyphenyl)-1H-pyrazolo[3,4-d]pyrimidin-3-yl]-2-methyl-3,4-dihydroisoquinolin-1(2H)-one] | < 100 | < 100 | < 100
COc1cc(OC)c(F)c(-c2ncc3c(-c4ccc5c(c4)CC(C(=O)N(C)C)O5)n[nH]c3n2)c1F (stereo not drawn) [Example 3, 5-[6-(2,6-Difluoro-3,5-dimethoxyphenyl)-1H-pyrazolo[3,4-d]pyrimidin-3-yl]-N,N-dimethyl-2,3-dihydro-1-benzofuran-2-carboxamide] | < 100 | < 100 | < 100
COc1cc(OC)c(F)c(-c2cc3[nH]nc(-c4ccc5c(c4)CC(C(=O)N(C)C)O5)c3cn2)c1F (single isomer, unassigned) [Example 84, 5-[6-(2,6-Difluoro-3,5-dimethoxyphenyl)-1H-pyrazolo[4,3-c]pyridin-3-yl]-N,N-dimethyl-2,3-dihydro-1-benzofuran-2-carboxamide] | < 100 | < 100 | < 100
COc1cc(OC)c(F)c(-c2cc3[nH]nc(-c4ccc5c(c4)CN(C(C)C)C5=O)c3cn2)c1F [Example 53, 5-[6-(2,6-Difluoro-3,5-dimethoxyphenyl)-1H-pyrazolo[4,3-c]pyridin-3-yl]-2-isopropylisoindolin-1-one] | < 100 | < 100 | < 100
COc1cc(OC)c(F)c(-c2cc3[nH]nc(-c4ccc5c(c4)CN([C@H]4CC[C@H](O)CC4)C5=O)c3cn2)c1F [Example 62, 5-[6-(2,6-Difluoro-3,5-dimethoxyphenyl)-1H-pyrazolo[4,3-c]pyridin-3-yl]-2-(trans-4-hydroxycyclohexyl)isoindolin-1-one] | < 100 | < 100 | < 100
COc1cc(OC)c(Cl)c(-c2ncc3c(-c4ccc5c(c4)CCN(C(C)C)C5=O)n[nH]c3n2)c1Cl [Example 11, 6-[6-(2,6-Dichloro-3,5-dimethoxyphenyl)-1H-pyrazolo[3,4-d]pyrimidin-3-yl]-2-isopropyl-3,4-dihydroisoquinolin-1(2H)-one] | < 100 | < 100 | < 100
COCCNC(=O)Cn1cc(-c2n[nH]c3cc(-c4c(Cl)c(OC)cc(OC)c4Cl)ncc23)cn1 [Example 46, 2-{4-[6-(2,6-Dichloro-3,5-dimethoxyphenyl)-1H-pyrazolo[4,3-c]pyridin-3-yl]-1H-pyrazol-1-yl}-N-(2-methoxyethyl)acetamide] | < 100 | < 100 | < 100
COc1cc(OC)c(Cl)c(-c2ccc3c(-c4ccc5c(c4)CN(C4CC4)C5=O)n[nH]c3n2)c1F [Example 89, 5-[6-(2-Chloro-6-fluoro-3,5-dimethoxyphenyl)-1H-pyrazolo[3,4-b]pyridin-3-yl]-2-cyclopropylisoindolin-1-one] | < 100 | < 100 | < 100
COc1cc(OC)c(F)c(-c2cc3[nH]nc(-c4ccc(N5CCN(C)CC5)cc4)c3cn2)c1F [Example 25, 6-(2,6-Difluoro-3,5-dimethoxyphenyl)-3-[4-(4-methylpiperazin-1-yl)phenyl]-1H-pyrazolo[4,3-c]pyridine] | < 100 | < 100 | < 100
COc1cc(OC)c(Cl)c(-c2cc3[nH]nc(-c4cnn(C)c4)c3cn2)c1Cl [Example 90, 6-(2,6-Dichloro-3,5-dimethoxyphenyl)-3-(1-methyl-1H-pyrazol-4-yl)-1H-pyrazolo[4,3-c]pyridine] | < 100 | < 100 | < 100
COc1cc(OC)c(F)c(-c2ncc3c(-c4ccc5c(c4)CN([C@H]4CC[C@H](O)CC4)C5=O)n[nH]c3n2)c1F [Example 15, 5-[6-(2,6-Difluoro-3,5-dimethoxyphenyl)-1H-pyrazolo[3,4-d]pyrimidin-3-yl]-2-(trans-4-hydroxycyclohexyl)isoindolin-1-one] | < 100 | < 100 | < 100
COCCN1Cc2cc(-c3n[nH]c4cc(-c5c(F)c(OC)cc(OC)c5F)ncc34)ccc2C1=O [Example 58, 5-[6-(2,6-Difluoro-3,5-dimethoxyphenyl)-1H-pyrazolo[4,3-c]pyridin-3-yl]-2-(2-methoxyethyl)isoindolin-1-one] | < 100 | < 100 | < 100
COc1cc(OC)c(F)c(-c2ncc3c(-c4ccc5c(c4)CN(C4CC4)C5=O)n[nH]c3n2)c1F [Example 21, 2-Cyclopropyl-5-[6-(2,6-difluoro-3,5-dimethoxyphenyl)-1H-pyrazolo[3,4-d]pyrimidin-3-yl]isoindolin-1-one] | < 100 | < 100 | < 100
CCN1Cc2cc(-c3n[nH]c4cc(-c5c(F)c(OC)cc(OC)c5F)ncc34)ccc2C1=O [Example 52, 5-[6-(2,6-Difluoro-3,5-dimethoxyphenyl)-1H-pyrazolo[4,3-c]pyridin-3-yl]-2-ethylisoindolin-1-one] | < 100 | < 100 | < 100
COc1cc(OC)c(F)c(-c2cc3[nH]nc(-c4cc5c(cc4F)C(=O)N(C(C)C)C5)c3cn2)c1F [Example 65, 5-[6-(2,6-Difluoro-3,5-dimethoxyphenyl)-1H-pyrazolo[4,3-c]pyridin-3-yl]-6-fluoro-2-isopropylisoindolin-1-one] | < 100 | < 100 | < 100
COc1cc(OC)c(F)c(-c2ncc3c(-c4ccc5c(c4)CN(S(C)(=O)=O)CC5)n[nH]c3n2)c1F [Example 85, 7-[6-(2,6-Difluoro-3,5-dimethoxyphenyl)-1H-pyrazolo[3,4-d]pyrimidin-3-yl]-2-(methylsulfonyl)-1,2,3,4-tetrahydroisoquinoline] | < 100 | < 100 | < 100
COc1cc(OC)c(F)c(-c2cc3[nH]nc(-c4ccc5c(c4)CN(CC(F)(F)F)C5=O)c3cn2)c1F [Example 60, 5-[6-(2,6-Difluoro-3,5-dimethoxyphenyl)-1H-pyrazolo[4,3-c]pyridin-3-yl]-2-(2,2,2-trifluoroethyl)isoindolin-1-one] | < 100 | < 100 | < 100
COc1cc(OC)c(F)c(-c2ncc3c(-c4ccc(N5CCN(C)CC5)cc4)n[nH]c3n2)c1F [Example 17, 6-(2,6-Difluoro-3,5-dimethoxyphenyl)-3-[4-(4-methylpiperazin-1-yl)phenyl]-1H-pyrazolo[3,4-d]pyrimidine] | < 100 | < 100 | < 100
